Experimental findings from paper PMC10707934, “Design and Synthesis of Novel α-Methylchalcone Derivatives, Anti-Cervical Cancer Activity, and Reversal of Drug Resistance in HeLa/DDP Cells” (Molecules, 2023) are described below.

Holding throughout (format): cell-based, human
The subject of one test is HeLa cells. The test can be described thus: Transwell migration assay, HeLa. The settings on record: 24 h, control 1176. The procedure: HeLa (5 × 10^4 cells) was suspended in 200 μL of FBS-free medium. The top chamber contained the vehicle and various concentrations of compound 3k (2.5, 5, and 10 μM), cisplatin (20 μM) and chalcone (20 μM). The lower chamber was filled with 600 μL of medium containing 10% FBS. After incubating at 37 °C for 24 h, the cells on the top side of the Transwell membrane were removed with a cotton tip. Cells were fixed and stained with 4% paraformaldehyde (LEAGENE BIOTECHNOLOGY, Cat:DF0135, Lot:0823A23, Zhongguancun, Haidian District, Beijing, China) and 0.1% crystal violet solutions (Leagene Biotechnology, Cat:DZ0055, Lot:0508A23, Zhongguancun, Haidian District, Beijing, China) for 30 min to fix cells trapped on the perforated side of the membrane.

In test [1] the test system is Bcl-2. The test can be described thus: Western blot, Bcl-2 expression in HeLa cells. The settings on record: 24 h, 5 and 10 μM. The method, then: (§1) HeLa cells were cultured in 60 mm Petri dishes at a density of 1.0 × 10^6 cells per dish and treated with 0.1% DMSO (vehicle), positive control chalcone (20 μM), and different concentrations of compound 3k (2.5, 5, and 10 μM), respectively. Following a 24 and 48 h incubation period, the cells were harvested via centrifugation and subsequently washed twice with PBS that had been chilled to 0 °C. Next, the cells were homogenized using RIPA lysis buffer (Solarbio, Beijing, China) and supplemented with 1% PMSF (MP Biomedicals, 0754-25G, CAS:329-98-6, Santa Ana, CA, USA) and 1% mixed phosphatase inhibitor (Solarbio, Beijing, China). […]
(§2) Subsequently, the protein concentrations were determined utilizing a BCA Protein Assay Kit (Solarbio, China). An equivalent quantity of the proteins (12 μg) was fractionated via 8–12% sodium dodecyl sulfate–polyacrylamide gel electrophoresis (SDS-PAGE) and transferred onto nitrocellulose membranes (Amersham Biosciences, Amersham, UK). […] The blots were subsequently visualized using enhanced chemiluminescence (Biosharp, Shanghai, China) and detected utilizing a PE 0723 imager (ProteinSimple, Silicon Valley, CA, USA). Each experiment was conducted in triplicate at minimum and analyzed employing Image J software (V1.8.0.112). β-actin(ab198991) rabbit mAb, goat anti-rabbit IgG (H + L) HRP—#S0001 (Affinity). […]

Test [2] deals with Bcl-2. The test can be described thus: Western blot, Bcl-2 expression in HeLa/DDP cells. The settings on record: 24 h, 2.5, 5, and 10 μM. The procedure:
as §1, §2
(Immunoblotting shows a protein as a band on a membrane.)

On to `COc1ccc(/C=C(\C)C(=O)c2ccc(Cl)c(Cl)c2)cc1OC` [Compound 3k, (E)-1-(3,4-Dichlorophenyl)-3-(3,4-dimethoxyphenyl)-2-methylprop-2-en-1-one], for which the “number of migrated cells” value with HeLa cells (2.5 μM) is 518; in the test with HeLa cells (5 μM) it was 388; with HeLa cells (10 μM), 166. The “Bcl-2 expression versus control group” value with Bcl-2 [1] is recorded as “downregulation”; in the test on Bcl-2 [2], “significantly downregulate”.
